This is an account of results in patent publication US9730914B2, “3,5-diaminopyrazole kinase inhibitors” (Axikin Pharmaceuticals, Inc., priority 2014, dated 2017).

Assay [1] deals with T1, kinase domain protein of RC kinase (RCK) (Homo sapiens, UniProt Q56UN5).
T1 construct: made in house; host or cells: E. coli BL21-derived host (T7 phage) or HEK-293
T1 sequence (Q56UN5 1061-1324 limits assumed): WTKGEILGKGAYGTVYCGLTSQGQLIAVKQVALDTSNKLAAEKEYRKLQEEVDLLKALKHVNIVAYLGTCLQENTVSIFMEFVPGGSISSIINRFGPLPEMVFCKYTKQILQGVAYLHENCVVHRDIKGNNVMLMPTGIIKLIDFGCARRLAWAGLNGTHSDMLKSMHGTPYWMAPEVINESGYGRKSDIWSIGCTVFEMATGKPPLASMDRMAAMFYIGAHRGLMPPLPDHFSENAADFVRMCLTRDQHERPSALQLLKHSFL
The assay can be described thus: Kinase competition binding assay (Kd, qPCR readout), RC kinase. The settings on record: Kd class, read-out: RCK Activity Level. As to the method:
(§1) For most assays, kinase-tagged T7 phage strains were prepared in an E. coli host derived from the BL21 strain. E. coli were grown to log-phase and infected with T7 phage and incubated with shaking at 32° C. until lysis. The lysates were centrifuged and filtered to remove cell debris. The remaining kinases were produced in HEK-293 cells and subsequently tagged with DNA for quantitative PCR (qPCR) detection.
(§2) Streptavidin-coated magnetic beads were treated with biotinylated small molecule ligands for 30 minutes at room temperature to generate affinity resins for kinase assays. The liganded beads were blocked with excess biotin and washed with blocking buffer (SeaBlock (Pierce), 1% BSA, 0.05% Tween 20, 1 mM DTT) to remove unbound ligand and to reduce nonspecific binding. Binding reactions were assembled by combining kinases, liganded affinity beads, and test compounds in 1× binding buffer (20% SeaBlock, 0.17×PBS, 0.05% Tween 20, 6 mM DTT). All reactions were performed in polystyrene 96-well plates in a final volume of 0.135 mL. The assay plates were incubated at room temperature with shaking for 1 hour and the affinity beads were washed with wash buffer (1×PBS, 0.05% Tween 20). The beads were then re-suspended in elution buffer (1×PBS, 0.05% Tween 20, 0.5 μM non-biotinylated affinity ligand) and incubated at room temperature with shaking for 30 minutes. The kinase concentration in the eluates was measured by qPCR.
(§3) An 11-point 3-fold serial dilution of each test compound was prepared in 100% DMSO at 100× final test concentration and subsequently diluted to 1× in the assay (final DMSO concentration=1%). Most Kd values were determined using a compound top concentration=30,000 nM. If the initial Kd determined was <0.5 nM, (the lowest concentration tested), the measurement was repeated with a serial dilution starting at a lower top concentration. A more detailed description of this assay may be found in Fabian, M. A. et al. Nat. Biotechnol. 2005, 23, 329-336, which is incorporated herein in its entirety.
(§4) The biological results of inhibition of the kinase domain protein of RC kinase (RCK) and JAK2 and JAK3 are summarized in Tables 2 and 3, wherein A represents a Kd of <50 nM; B represents 50 nM<Kd<100 nM; C represents 100 nM<Kd<1000 nM; and D represents a Kd>1000 nM.

The target in the next assay is T2, JAK2 (Homo sapiens, UniProt O60674).
T2 construct: made in house; host or cells: E. coli BL21-derived host (T7 phage) or HEK-293
As to the kind of experiment: Kinase competition binding assay (Kd, qPCR readout), JAK2. The settings on record: for Kd: Kd class, JAK2, read-out: JAK2 Activity Level; for RCK:JAK2 selectivity ratio: ratio Kd (JAK2): Kd(RCK). Here is the method:
as §1, §2, §3, §4
Additionally, RCK:JAK2 selectivity, as measured by the ratio Kd (JAK2): Kd(RCK) is represented as follows: A represents Kd (JAK2): Kd (RCK)>100; B represents 10<Kd(JAK2): Kd (RCK)<100; C represents 1<Kd (JAK2): Kd (RCK)<10; and D represents Kd(JAK2): Kd (RCK)<1.
On the technique in general: Real-time PCR tracks product formation cycle by cycle.

For a further assay, the target named is T3, JAK3 (Homo sapiens, UniProt P52333).
T3 construct: made in house; host or cells: E. coli BL21-derived host (T7 phage) or HEK-293
As to the kind of experiment: Kinase competition binding assay (Kd, qPCR readout), JAK3. The settings on record: for Kd: Kd class, JAK3, read-out: JAK3 Activity Level; for RCK:JAK3 selectivity ratio: ratio Kd (JAK3): Kd (RCK). Here is the method: as §1, §2, §3, §4
Similarly, RCK:JAK3 selectivity, as measured by the ratio Kd (JAK3): Kd (RCK) is represented as follows: A represents Kd (JAK3): Kd (RCK)>100; B represents 10<Kd (JAK3): Kd (RCK)<100; C represents 1<Kd (JAK3): Kd (RCK)<10; and D represents Kd (JAK3): Kd(RCK)<1.

Molecules are shown by their SMILES. Where only a bound is given, the exact number is not on record here.

T2 sequence (O60674 840-1132 limits assumed): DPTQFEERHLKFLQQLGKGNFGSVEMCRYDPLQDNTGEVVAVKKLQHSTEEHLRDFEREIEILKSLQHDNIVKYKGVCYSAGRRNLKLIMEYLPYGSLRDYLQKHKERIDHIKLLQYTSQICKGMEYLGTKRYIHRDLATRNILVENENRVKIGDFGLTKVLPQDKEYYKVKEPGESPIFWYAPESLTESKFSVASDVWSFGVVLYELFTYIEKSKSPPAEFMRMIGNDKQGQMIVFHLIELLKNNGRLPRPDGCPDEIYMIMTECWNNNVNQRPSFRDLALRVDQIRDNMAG
T3 sequence (P52333 811-1124 limits assumed): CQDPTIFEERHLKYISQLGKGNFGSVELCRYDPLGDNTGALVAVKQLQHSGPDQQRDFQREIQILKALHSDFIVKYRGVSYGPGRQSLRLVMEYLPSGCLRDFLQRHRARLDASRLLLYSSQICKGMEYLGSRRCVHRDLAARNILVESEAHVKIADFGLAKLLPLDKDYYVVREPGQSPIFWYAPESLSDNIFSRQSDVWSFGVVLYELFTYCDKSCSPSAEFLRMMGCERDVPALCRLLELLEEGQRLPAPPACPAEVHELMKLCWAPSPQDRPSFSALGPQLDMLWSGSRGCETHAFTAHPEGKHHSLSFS

Turning to `Cc1cc(Nc2n[nH]c(NCc3ccc(O)cc3)c2C(N)=O)ccc1N1CCOCC1`, the Kd in assay [1] is less than 0.05 µM.
Turning to `Cc1cc(CNc2[nH]nc(Nc3ccc(N4CCN(C(C)C)CC4)cc3)c2C(N)=O)cc(C)c1O` [Compound 1, 5-((4-hydroxy-3,5-dimethylbenzyl)amino)-3-((4-(4-isopropylpiperazin-1-yl)phenyl)amino)-1H-pyrazole-4-carboxamide], the Kd is less than 0.05 µM in assay [1], 0.1 to 1 µM at JAK2 and 0.1 to 1 µM on JAK3. Further, on JAK2, the “RCK:JAK2 selectivity ratio” value was “A (A represents Kd (JAK2): Kd (RCK)>100)”. Also, the “RCK:JAK3 selectivity ratio” value at JAK3 is “A (A represents Kd (JAK3): Kd (RCK)>100)”.
For `Cc1cc(CNc2[nH]nc(Nc3ccc(N4CCOCC4)c(Cl)c3)c2C(N)=O)cc(C)c1O` [Compound 2, 3-((3-chloro-4-morpholinophenyl)amino)-5-((4-hydroxy-3,5-dimethylbenzyl)amino)-1H-pyrazole-4-carboxamide], the Kd in assay [1] is less than 0.05 µM; on JAK2 it was 0.1 to 1 µM; at JAK3, more than 1 µM. Moreover, the “RCK:JAK2 selectivity ratio” value on JAK2 was “B (B represents 10<Kd(JAK2): Kd (RCK)<100)”. The “RCK:JAK3 selectivity ratio” value at JAK3 is reported as “A (A represents Kd (JAK3): Kd (RCK)>100)”.
For `Cc1cc(CNc2[nH]nc(Nc3ccc(N4CCOCC4)cc3)c2C(N)=O)cc(C)c1O` [Compound 3, 5-((4-hydroxy-3,5-dimethylbenzyl)amino)-3-((4-morpholinophenyl)amino)-1H-pyrazole-4-carboxamide], in that order: less than 0.05 µM, 0.1 to 1 µM, more than 1 µM, “B (B represents 10<Kd(JAK2): Kd (RCK)<100)” and “A (A represents Kd (JAK3): Kd (RCK)>100)”.
For `Cc1cc(CNc2[nH]nc(Nc3ccc(N4C[C@@H](C)O[C@@H](C)C4)cc3)c2C(N)=O)cc(C)c1O` [Compound 4, 3-((4-(2,6-dimethylmorpholino)phenyl)amino)-5-((4-hydroxy-3,5-dimethylbenzyl)amino)-1H-pyrazole-4-carboxamide] the same measures were 0.1 to 1 µM, more than 1 µM, more than 1 µM, “B (B represents 10<Kd(JAK2): Kd (RCK)<100)” and “B (B represents 10<Kd (JAK3): Kd (RCK)<100)”.
For `Cc1cc(CNc2[nH]nc(Nc3cnc(N4CCOCC4)c(Cl)c3)c2C(N)=O)cc(C)c1O` [Compound 5, 3-((5-chloro-6-morpholinopyridin-3-yl)amino)-5-((4-hydroxy-3,5-dimethylbenzyl)amino)-1H-pyrazole-4-carboxamide] the same measures were 0.1 to 1 µM, more than 1 µM, more than 1 µM, “B (B represents 10<Kd(JAK2): Kd (RCK)<100)” and “B (B represents 10<Kd (JAK3): Kd (RCK)<100)”.
With `Cc1cc(CNc2[nH]nc(Nc3ccc(-n4cccc4)cc3)c2C(N)=O)cc(C)c1O` [Compound 6, 3-((4-(1H-pyrrol-1-yl)phenyl)amino)-5-((4-hydroxy-3,5-dimethylbenzyl)amino)-1H-pyrazole-4-carboxamide], the Kd was less than 0.05 µM in assay [1], more than 1 µM at JAK2 and more than 1 µM at JAK3. Moreover, the “RCK:JAK2 selectivity ratio” value at JAK2 is “A (A represents Kd (JAK2): Kd (RCK)>100)”. At JAK3, the “RCK:JAK3 selectivity ratio” value is “A (A represents Kd (JAK3): Kd (RCK)>100)”.
In the case of `Cc1cc(CNc2[nH]nc(Nc3ccc(N4CCOCC4)nc3)c2C(N)=O)cc(C)c1O` [Compound 7, 5-((4-hydroxy-3,5-dimethylbenzyl)amino)-3-((6-morpholinopyridin-3-yl)amino)-1H-pyrazole-4-carboxamide], the Kd in assay [1] was 0.05 to 0.1 µM; at JAK2, 0.1 to 1 µM; on JAK3 it was more than 1 µM. At JAK2, the “RCK:JAK2 selectivity ratio” value is recorded as “C (C represents 1<Kd (JAK2): Kd (RCK)<10)”. Also, the “RCK:JAK3 selectivity ratio” value on JAK3 was “B (B represents 10<Kd (JAK3): Kd (RCK)<100)”.
Turning to `Cc1cc(Nc2n[nH]c(NCc3cc(C)c(O)c(C)c3)c2C(N)=O)ccc1N1CCOCC1` [Compound 8, 5-((4-hydroxy-3,5-dimethylbenzyl)amino)-3-((3-methyl-4-morpholinophenyl)amino)-1H-pyrazole-4-carboxamide], the values for the Kd (in assay [1]; at JAK2; at JAK3) were 0.05 to 0.1 µM, more than 1 µM and more than 1 µM, respectively. Moreover, the “RCK:JAK2 selectivity ratio” value on JAK2 was “B (B represents 10<Kd(JAK2): Kd (RCK)<100)”. Also, the “RCK:JAK3 selectivity ratio” value on JAK3 was “B (B represents 10<Kd (JAK3): Kd (RCK)<100)”.
As to `Cc1cc(CNc2[nH]nc(Nc3ccc(-c4ccccn4)cc3)c2C(N)=O)cc(C)c1O` [Compound 9, 5-((4-hydroxy-3,5-dimethylbenzyl)amino)-3-((4-(pyridin-2-yl)phenyl)amino)-1H-pyrazole-4-carboxamide], the Kd in assay [1] is 0.05 to 0.1 µM. Further, on JAK2, the Kd was more than 1 µM and the “RCK:JAK2 selectivity ratio” value is reported as “B (B represents 10<Kd(JAK2): Kd (RCK)<100)”. Also, at JAK3, the Kd was more than 1 µM and the “RCK:JAK3 selectivity ratio” value was “A (A represents Kd (JAK3): Kd (RCK)>100)”.
As to `Cc1cc(CNc2[nH]nc(Nc3ccc(N4CCN(C)CC4)cc3)c2C(N)=O)cc(C)c1O` [Compound 10, 5-((4-hydroxy-3,5-dimethylbenzyl)amino)-3-((4-(4-methylpiperazin-1-yl)phenyl)amino)-1H-pyrazole-4-carboxamide], in assay [1], the Kd is 0.05 to 0.1 µM. For the same molecule, at JAK2, the Kd is more than 1 µM and the “RCK:JAK2 selectivity ratio” value is on record as “B (B represents 10<Kd(JAK2): Kd (RCK)<100)”. Besides, on JAK3, the Kd is more than 1 µM and the “RCK:JAK3 selectivity ratio” value is “A (A represents Kd (JAK3): Kd (RCK)>100)”.
As for `Cc1cc(CNc2[nH]nc(Nc3ccc(N4CCOCC4)cn3)c2C(N)=O)cc(C)c1O` [Compound 11, 5-((4-hydroxy-3,5-dimethylbenzyl)amino)-3-((5-morpholinopyridin-2-yl)amino)-1H-pyrazole-4-carboxamide], the Kd in assay [1] lay in the range of 0.05 to 0.1 µM. In addition, on JAK2, the Kd was 0.1 to 1 µM and the “RCK:JAK2 selectivity ratio” value is recorded as “C (C represents 1<Kd (JAK2): Kd (RCK)<10)”. On JAK3, the Kd is more than 1 µM and the “RCK:JAK3 selectivity ratio” value is “B (B represents 10<Kd (JAK3): Kd (RCK)<100)”.
For `Cc1cc(Nc2n[nH]c(NCc3cc(C)c(O)c(C)c3)c2C(N)=O)cnc1N1CCOCC1` [Compound 12, 5-((4-hydroxy-3,5-dimethylbenzyl)amino)-3-((5-methyl-6-morpholinopyridin-3-yl)amino)-1H-pyrazole-4-carboxamide] the same measures were 0.1 to 1 µM, more than 1 µM, “B (B represents 10<Kd(JAK2): Kd (RCK)<100)”, more than 1 µM and “B (B represents 10<Kd (JAK3): Kd (RCK)<100)”.
For `Cc1cc(Nc2n[nH]c(NCc3cc(C)c(O)c(C)c3)c2C(N)=O)cnc1N1CCN(C(C)C)CC1` [Compound 13, 5-((4-hydroxy-3,5-dimethylbenzyl)amino)-3-((6-(4-isopropylpiperazin-1-yl)-5-methylpyridin-3-yl)amino)-1H-pyrazole-4-carboxamide] the same measures were more than 1 µM, more than 1 µM, “B (B represents 10<Kd(JAK2): Kd (RCK)<100)”, more than 1 µM and “B (B represents 10<Kd (JAK3): Kd (RCK)<100)”.
